Data as given in patent publication US8592581B2, “Trisubstituted purine derivatives” (Cyclacel Limited, priority 2007, dated 2013).

Legend:
CDK2/cyclin E = CDK2/cyclin E (Homo sapiens (Human), UniProt P24941); test: In-vitro recombinant kinase assay CDK2/cyclin E; type: biochemical; conditions: Table 2; average of duplicate points; read-out: CDK2/Cyclin E Average IC50
Description: (§1) To evaluate the in-vitro kinase potency of the compounds, they were screened against CDK 2 and CDK9. Kinase assays were performed in 96-well plates using recombinant CDK/cyclins generated at Cyclacel. Ltd Dundee, UK. CDK2 and CDK9 assays were performed in a total volume of 25 μl in assay buffer (25 mM b-glycerophosphate, 20 mM MOPS, 5 mM EGTA, 1 mM DTT and 1 mM NaVO3, pH 7.4), into which were added 2-4 μg of active enzyme with appropriate substrates (purified histone H1 for CDK2/cyclin E, and CDK2/cyclin A, biotinyl-Ahx-(YSPTSPS)4 for CDK9/cyclin T1). […] CDK2 reactions were stopped by addition of 25 μl of 75 mM phosphoric acid, followed by filtration through P81 filterplates (Whatman Polyfiltronics, Kent, UK). For CDK9, the reaction was stopped by addition of 25 μl of 75 mM phosphoric acid, then 5 μl of 10 mg/ml avidin was added to each well and further incubated for 2 min followed by filtration as per CDK2 assay. After washing 3 times with 75 mM orthophosphoric acid, plates were dried, scintillant added and incorporated radioactivity measured in a scintillation counter (TopCount, Packard Instruments, Pangbourne, Berks, UK). Compounds for kinase assay were made up as 10 mM stocks in DMSO and diluted into 10% DMSO in assay buffer.
as §1

[1] = test system: H460 non-small cell lung cancer (NSCLC) cell line; test: Alamar blue cytotoxicity assay in H460 NSCLC tumour cell line; type: cell-based; conditions: H460 cells, 72 hours, average of three independent experiments
Description: (§2) In order to determine the cellular potency of the compounds, the cytotoxicity of each compound was determined against the H460 non-small cell lung cancer (NSCLC) cell line. Standard cytotoxicity methods were performed as follows: H460 cells were seeded in 96-well plates appropriately for their doubling time (3000 cells per well) in RPMI media containing 10% FCS and incubated overnight at 37° C., 5% CO2. The media was removed and 100 μl fresh media containing increasing concentrations of appropriate compound was added and the cells incubated for 72 hours at 37° C., 5% CO2. A 10% stock of alamar blue (Roche, Lewes, United Kingdom) was prepared in medium and 100 μl added to the cells which were incubated for 2 hours.

CYP1A = CYP1A (Homo sapiens, UniProt P05177); test: CYP1A inhibition, human liver microsomes, ethoxyresorufin; type: in vitro ADME; conditions: human liver microsomes, probe ethoxyresorufin (0.5 μM), read-out: IC50 (μM) CYP1A
Chain of CYP1A (P05177 2-516 limits assumed): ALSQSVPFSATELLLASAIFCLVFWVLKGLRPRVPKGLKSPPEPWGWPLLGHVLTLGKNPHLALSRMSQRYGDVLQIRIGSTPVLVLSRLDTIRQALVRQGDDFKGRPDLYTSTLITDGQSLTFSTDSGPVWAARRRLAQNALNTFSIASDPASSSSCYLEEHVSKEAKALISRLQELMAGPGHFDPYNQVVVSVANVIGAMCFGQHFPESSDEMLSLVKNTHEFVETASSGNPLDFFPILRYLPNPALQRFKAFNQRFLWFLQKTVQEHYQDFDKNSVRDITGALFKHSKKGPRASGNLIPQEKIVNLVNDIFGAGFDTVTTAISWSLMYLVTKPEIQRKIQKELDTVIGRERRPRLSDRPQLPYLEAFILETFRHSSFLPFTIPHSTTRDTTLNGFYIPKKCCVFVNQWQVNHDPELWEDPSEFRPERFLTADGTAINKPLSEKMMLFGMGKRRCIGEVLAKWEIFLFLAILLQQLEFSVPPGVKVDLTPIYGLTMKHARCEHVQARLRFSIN
Description: Six test compound concentrations (0.05, 0.25, 0.5, 2.5, 5, 25 μM in DMSO; final DMSO concentration=0.35%) were incubated with human liver microsomes (0.25 mg/mL) and NADPH (1 mM) in the presence of the probe substrate ethoxyresorufin (0.5 μM) for 5 min at 37° C. The selective CYP1A inhibitor, alpha-naphthoflavone, was screened alongside the test compounds as a positive control.
For the CYP1A incubations, the reactions were terminated by the addition of methanol, and the formation of the metabolite, resorufin, was monitored by fluorescence (excitation wavelength=535 nm, emission wavelength=595 nm). For the CYP2C9, CYP2C19, CYP2D6, and CYP3A4 incubations, the reactions were terminated by the addition of methanol containing internal standard. The samples were then centrifuged, and the supernatants were combined, for the simultaneous analysis of 4-hydroxytolbutamide, 4-hydroxymephenyloin, dextrorphan, and 1-hydroxymidazolam plus internal standard by LC-MS/MS using generic LC-MS/MS conditions. Formic acid in deionised water (final concentration=0.1%) was added to the final sample prior to analysis.

CYP2C9 = CYP2C9 (Homo sapiens (Human), UniProt P11712); test: Cytochrome P450 substrate identification (Bactosomes) CYP2C9; type: in vitro ADME; conditions: pH 7.4, 5 μM test compound, up to 45 min, read-out: half life in the presence of CYP2C9
Chain of CYP2C9 (P11712 whole entry): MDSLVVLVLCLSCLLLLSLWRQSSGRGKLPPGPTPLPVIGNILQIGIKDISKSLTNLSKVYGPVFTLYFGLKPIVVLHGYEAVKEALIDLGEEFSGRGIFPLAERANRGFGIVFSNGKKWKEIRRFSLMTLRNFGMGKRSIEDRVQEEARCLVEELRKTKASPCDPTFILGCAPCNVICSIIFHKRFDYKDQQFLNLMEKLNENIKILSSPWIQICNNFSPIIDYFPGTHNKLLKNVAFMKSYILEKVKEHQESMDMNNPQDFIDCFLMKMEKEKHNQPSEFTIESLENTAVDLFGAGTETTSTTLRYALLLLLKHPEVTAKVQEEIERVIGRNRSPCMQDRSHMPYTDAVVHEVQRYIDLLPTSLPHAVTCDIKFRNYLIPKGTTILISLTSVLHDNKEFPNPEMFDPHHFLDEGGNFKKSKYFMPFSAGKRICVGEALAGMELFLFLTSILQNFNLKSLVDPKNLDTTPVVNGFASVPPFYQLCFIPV
Description: cDNA expressed human CYP450 enzyme preparations co-expressed with human NADPH cytochrome P450 reductase (Bactosomes™) were supplied by Cypex Ltd. Bactosomes™ (final P450 concentration CYP1A2 100 pmol/mL, CYP2C8 50 pmol/mL, CYP2C9 25 pmol/mL, CYP2C19 100 pmol/mL, CYP2D6 50 pmol/mL and CYP3A4 25 pmol/mL), 0.1M phosphate buffer pH7.4 and test compound (final substrate concentration=5 μM; final DMSO concentration=0.25%) were pre-incubated at 37° C. prior to the addition of NADPH (final concentration=1 mM) to initiate the reaction. Incubations were also performed using control bactosomes (no P450 enzymes present) to reveal any non-enzymatic degradation. The final incubation volume was 25 μL. Compounds known to be metabolised specifically by each CYP450 isoform were used as control compounds.
Each compound was incubated singly for 0, 5, 15, 30 and 45 min with each CYP isoform. The reactions were stopped by the addition of 50 μL methanol containing internal standard at the appropriate time points. The incubation plates were centrifuged at 2500 rpm for 20 min at 4° C. to precipitate the protein. Following protein precipitation, the sample supernatants were combined in cassettes of up to four compounds and analysed using generic LC-MS/MS conditions.
The In peak area ratio (which has been corrected for any loss in the incubations with the control bactosomes) was plotted against time and the gradient of the line determined.
The elimination rate constant (k)=(−gradient)

H1650 = test: Alamar blue cytotoxicity assay H1650; type: cell-based; conditions: Homo sapiens, NCI-H1650; 72 hours; read-out: cellular cytotoxicity IC50 H1650
Description: as §2, with “a range of” for “the H460 non-small”, “lines.” for “lung cancer (NSCLC) cell line.”, “follows:” for “follows: H460”, “(2-5000” for “(3000”, “RPMI or DMEM” for “RPMI”, “hours. Absorbance was measured on the Wallac Victor 2 1420 multi-label counter at 544-595 nm.” for “hours.”

LoVo = test: Alamar blue cytotoxicity assay LoVo; type: cell-based; conditions: Homo sapiens, 72 hours, read-out: cellular cytotoxicity IC50 LoVo
Description: as §2, with “a range of” for “the H460 non-small”, “lines.” for “lung cancer (NSCLC) cell line.”, “follows:” for “follows: H460”, “(2-5000” for “(3000”, “RPMI or DMEM” for “RPMI”, “hours. Absorbance was measured on the Wallac Victor 2 1420 multi-label counter at 544-595 nm.” for “hours.”

H292 = test: Alamar blue cytotoxicity assay H292; type: cell-based; conditions: Homo sapiens, NCI-H292; 72 hours; read-out: cellular cytotoxicity IC50 H292
Description: as §2, with “a range of” for “the H460 non-small”, “lines.” for “lung cancer (NSCLC) cell line.”, “follows:” for “follows: H460”, “(2-5000” for “(3000”, “RPMI or DMEM” for “RPMI”, “hours. Absorbance was measured on the Wallac Victor 2 1420 multi-label counter at 544-595 nm.” for “hours.”

MCF7 = test: Alamar blue cytotoxicity assay MCF7; type: cell-based; conditions: Homo sapiens, 72 hours, read-out: cellular cytotoxicity IC50 MCF7
Description: as §2, with “a range of” for “the H460 non-small”, “lines.” for “lung cancer (NSCLC) cell line.”, “follows:” for “follows: H460”, “(2-5000” for “(3000”, “RPMI or DMEM” for “RPMI”, “hours. Absorbance was measured on the Wallac Victor 2 1420 multi-label counter at 544-595 nm.” for “hours.”

Work on `CC[C@H](Nc1nc(NCc2cnc(C)cc2C)c2ncn(C(C)C)c2n1)[C@@H](C)O` [Compound [1]] yielded an IC50 (CDK2/cyclin E) of 20 nM, an IC50 [1] of 500 nM and an IC50 ([1]; Homo sapiens, NCI-H460, 72 h) of less than 1000 nM. The IC50 at 5 min (CYP1A) was greater than 25 µM, the half-life at 5 μM (CYP2C9) was greater than 45 min and the IC50 (H1650) was 460 nM. For the same molecule, the IC50 (LoVo) was 700 nM, the IC50 (H292) was 370 nM and the IC50 (MCF7) was 260 nM.
